# Results as given in EP2711008A1, “N6,N6-dimethyladenosine for use in treating or preventing primary and metastatic breast cancer” (priority 2012, dated 2014).
# Tests used:
# [1] = test system: MCF-7 breast cancer cell line; experiment: Tetrazolium dye proliferation (WST-1) assay in MCF-7 cells; type: cell-based; conditions: 5 days incubation
# Procedure: (§1) Determination of the ability of compound of formula (I) and combinations between compound of formula (I) and certain therapeutic compounds described herein to inhibit the proliferation of target cells was assayed in vitro against breast tumour cells.
# (§2) MCF-7 cells were purchased from ATCC. PNT1A cells were purchased from ECACC. The cells were grown in a subconfluent condition to maintain a logarithmic growth phase. The cells were dislodged for passage using trypsin-EDTA.
# (§3) The proliferation of the cell lines was evaluated by using the commercial WST-1 proliferation measurement reagent. Cells from exponentially growing cultures were plated on the 96 well plates at the appropriate seeding density in the optimal medium to give logarithmic growth over the course of the assay. […] Following incubation the absorbance at a wavelength of 450 nm was measured from each well using a multilabel counter. The absorbance at wavelength 450 nm correlates linearly to number of viable cells in the well.
# (§4) The means and standard deviations for parallel samples were calculated and plotted as a graph.
# (§5) The antiproliferative activity of compound of formula (I) was evaluated in vitro using tetrazolium dye proliferation assay in different cell lines: MCF-7 (breast cancer cell line, derived from pleura fluid) and PNT1A (normal prostate cell line, SV40 immortalized).
# [2] = test system: PNT1A immortalized normal prostate cell line; experiment: Tetrazolium dye proliferation (WST-1) assay in PNT1A cells; type: cell-based; conditions: Homo sapiens, 120 h, compared with 0.1 % DMSO vehicle control group, 5 days incubation, read-out: proliferation inhibitory effect
# Procedure: as §1, §2, §3, §4, §5
# prostate cancer cells = experiment: Effect on other cancer cells: prostate; type: cell-based
# pancreatic cancer cells = experiment: Effect on other cancer cells: pancreatic; type: cell-based
# [3] = test system: L1210 leukemia cultured cells; conditions: prior art (Kato et al 1986; Takamura et al 1989); cited from earlier work
# Ehrlich ascites tumour = conditions: prior art (Kato et al 1986; Takamura et al 1989); cited from earlier work
# [4] = test system: malignant trophoblastic cell lines; conditions: prior art (Trewyn et al. 1979); cited from earlier work
# HL-60 cells = conditions: prior art (Meisel et al. 1998; Mlejnek et al. 2005); cited from earlier work
compound,measurement,setting,value
"CN(C)c1ncnc2c1ncn2[C@@H]1O[C@H](CO)[C@@H](O)[C@H]1O [Compound I, N6,N6-Dimethyladenosine]",inhibition at 1 µM,"[1]; Homo sapiens, MCF7, 120 h, compared with 0.1 % DMSO vehicle control group, 1 microM, read-out: proliferation inhibitory effect",91.6 ± 2.1%
same,proliferation inhibitory effect compared with Gemcitabine,[1]; relative to Gemcitabine (= 0),62.6±9.4%
same,inhibition at 1 µM,[2],17.4 ± 5.3%
same,effect on prostate cancer cells,prostate cancer cells,no effect was detected
same,effect on pancreatic cancer cells,pancreatic cancer cells,no effect was detected
same,antitumour activity in L1210 leukemia cultured cells,[3],inactive
same,antitumour activity against Ehrlich ascites tumour,Ehrlich ascites tumour,inactive
same,cytotoxicity to malignant trophoblastic cell lines,[4],cytotoxic
same,apoptosis induction on HL-60 cells,HL-60 cells,apoptotic inductor
